Converted amounts (≈) assume the structure as drawn.
What was measured:
[1] = test system: HCT-116, MCF-7, HEPG-2; assay: Cytotoxic screening, statements over the three cell lines; format: cell-based; conditions: Homo sapiens; HCT-116, MCF-7, HEPG-2 together; read-out: IC50, range over the three cell lines
Procedure: Human colon carcinoma (HCT-116), human hepatocellular carcinoma (HEPG-2), adenocarcinomic human alveolar basal epithelial cell (A-549), and human breast adenocarcinoma (MCF-7) cell lines were obtained from the American Type Culture Collection (ATCC, Rockville, MD). The cells were grown on RPMI-1640 medium supplemented with 10 % inactivated fetal calf serum and 50 µg/ml gentamycin. The cells were maintained at 37 °C in a humidified atmosphere with 5 % CO2 and were subcultured two to three times a week. Potential cytotoxicity of the compounds was evaluated on tumor cells using the method of Gangadevi and Muthumary (2007[21]) (Klancnik et al., 2010[36]). The cells were grown as monolayers in growth RPMI-1640. The monolayers of 104 cells adhered at the bottom of the wells in a 96-well microtiter plate incubated for 24 h at 37 °C in a humidified incubator with 5 % CO2. The monolayers were then washed with sterile phosphate buffered saline (0.01 M pH 7.2) and simultaneously the cells were treated with 100 µL from different dilutions of tested sample in fresh maintenance medium and incubated at 37 °C. A control of untreated cells was made in the absence of tested sample. Positive controls containing doxorubicin were also tested as a reference drug for comparison. Six wells were used for each concentration of the test sample. Every 24 hours an observation under the inverted microscope was made. The number of the surviving cells was determined by staining the cells with crystal violet (Mosmann, 1983[42]; Gangadevi and Muthumary, 2007[21]) followed by cell lysing using 33 % glacial acetic acid and reading the absorbance at 590 nm using microplate reader (SunRise, TECAN, Inc, USA) after well mixing. The absorbance values from untreated cells were considered as 100 % proliferation. The number of viable cells was determined using microplate reader as previously mentioned before and the percentage of […] was calculated as [1-(ODt/ODc)] x 100 % where ODt is the mean optical density of wells treated with the tested sample and ODc is the mean optical density of untreated cells. The relation between surviving cells and drug concentration was plotted to get the survival curve of each tumor cell line after treatment with the specified compound. The 50 % inhibitory concentration (IC50), the concentration required to cause toxic effects in 50 % of intact cells, was estimated from graphic plots.
The in vitro cytotoxic activity was performed by MTT assay (Mosmann, 1983[42]; Alley et al., 1988[6]) against three human carcinoma cell lines: Human colon carcinoma (HCT-116), human breast adenocarcinoma (MCF-7), and human hepatocellular carcinoma (HEPG-2).

[2] = test system: Escherichia coli (RCMB 010052); assay: Well diffusion assay (inhibition zone); format: cell-based; conditions: RCMB010052, 5 mg/mL in DMSO, Gm-ve, read-out: Inhibition Zone (IZ) diameter, E.C
Outline: (§1)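 Agar well diffusion with 10 mm wells, nutrient agar for bacteria and malt extract agar for fungi. Plates were incubated 24-48 h at 37 °C for bacteria or 28 °C for fungi. Inhibition zone diameters were measured in mm, in triplicate.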

[3] = test system: Bacillus subtilis (RCMB 010067); assay: Well diffusion assay (inhibition zone); format: cell-based; conditions: RCMB010067, 5 mg/mL in DMSO, Gm+ve, read-out: Inhibition Zone (IZ) diameter, B.S
Outline: as §1

[4] = test system: Streptococcus pneumoniae (RCMB 010010); assay: Well diffusion assay (inhibition zone); format: cell-based; conditions: RCMB010010, 5 mg/mL in DMSO, Gm+ve, read-out: Inhibition Zone (IZ) diameter, S.P
Outline: as §1

[5] = test system: Aspergillus fumigatus (RCMB 02568); assay: Well diffusion assay (inhibition zone); format: cell-based; conditions: RCMB02568, 5 mg/mL in DMSO, fungi, read-out: Inhibition Zone (IZ) diameter, A.F
Outline: as §1

[6] = test system: Geotricum candidum (RCMB 05097); assay: Well diffusion assay (inhibition zone); format: cell-based; conditions: 5 mg/mL in DMSO; fungi; read-out: Inhibition Zone (IZ) diameter, G.C
Outline: as §1

[7] = test system: Syncephalastrum racemosum (RCMB 05922); assay: Well diffusion assay (inhibition zone); format: cell-based; conditions: RCMB05922, 5 mg/mL in DMSO, fungi, read-out: Inhibition Zone (IZ) diameter, S.R
Outline: as §1

[8] = test system: caspase-3 and -7; assay: Caspase-Glo 3/7 caspase activity assay; format: cell-based, human; conditions: compared to control and doxorubicin; MCF-7 and HCT-116; compounds at IC50 concentration, 48 h
Procedure: To measure caspase-3 and -7 activities, a luminescent Caspase-Glo 3/7 assay was performed. HCT116 and MCF-7 cells were seeded onto black 96-well plates at a density of 3,500 cells/well. […] After 48 h a Caspase-Glo 3/7 Assay (Promega) was performed according to the manufacturer's instructions. After adding 100 μL of Caspase 3/7 Glo Reagent, cells were incubated for 2.5 h at room temperature. The luminescence was measured using a multi-plate reader (Synergy 4, BioTek) with an integration time of 1 second per well. The values are the means ± SD of three sets of experiments.
The initial reported assay of 4-aryl-4H-chromene series were identified as apoptosis inducers via caspase activation (Elinson et al., 2010[20]; Sondhi et al., 2010[58]; Thareja et al., 2010[60]; Trinchieri, 2015[61]). Furthermore, it was important to investigate the antiproliferative effect of the novel synthesized compounds 4a, 4b, and 4c using caspase-3 and -7 activities compared to doxorubicin and vehicle control drug in the corresponding cancer cell lines MCF-7 and HCT-116.

Row | SMILES | IC50 [1] [µg/mL] | zone of inhibition at 5000 µg/mL [2] [mm] | zone of inhibition at 5000 µg/mL [3] [mm] | zone of inhibition at 5000 µg/mL [4] [mm] | zone of inhibition at 5000 µg/mL [5] [mm] | zone of inhibition at 5000 µg/mL [6] [mm] | zone of inhibition at 5000 µg/mL [7] [mm] | elevation in the caspase activity [8]
1 | N#CC1=C(N)Oc2c(N)cc3ccccc3c2C1c1ccc(Cl)cc1 (stereo not drawn) [4b, 3,5-diamino-1-(4-chlorophenyl)-1H-benzo[f]chromene-2-carbonitrile] | 0.3 to 2 (≈ 0.863 to 5.75 µM) | 18.3 | 33.7 | 22.6 | 24.3 | 26.9 | 17.6 | 2-3 folds
2 | N#CC1=C(N)Oc2c(ccc3c(N)cccc23)C1c1ccc(F)cc1 (stereo not drawn) [7c] | 0.3 to 2 (≈ 0.905 to 6.04 µM) | 18.6 | 21.3 | 17.8 | 18.2 | 20.1 | 16.2 | –
3 | N#CC1=C(N)Oc2c(N)cc3ccccc3c2C1c1ccc(F)cc1 (stereo not drawn) [4a, 3,5-diamino-1-(4-fluorophenyl)-1H-benzo[f]chromene-2-carbonitrile] | 0.3 to 2 (≈ 0.905 to 6.04 µM) | 11.9 | 18.2 | 16.9 | 12.3 | – | 12.6 | –
4 | Cc1ccc(C2C(C#N)=C(N)Oc3c(N)cc4ccccc4c32)cc1 (stereo not drawn) [4c, 3,5-diamino-1-(p-tolyl)-1H-benzo[f]chromene-2-carbonitrile] | 0.3 to 2 (≈ 0.916 to 6.11 µM) | 15.3 | 19.4 | 18.2 | 20.2 | 18.6 | 16.9 | 2-3 folds
5 | COc1ccc(N=Nc2cc3c(cc2O)OC(N)=C(C#N)C3c2ccc(F)cc2)cc1 (stereo not drawn) [13b, 2-Amino-4-(4-fluoro-phenyl)-7-hydroxy-6-(4-methoxy-phenylazo)-4H-chromene-3-carbonitrile] | 2.41 to 5.4 (≈ 5.79 to 13 µM) | 17.8 | 19.7 | 17.5 | 16.3 | 17.3 | 15.2 | –

From publication PMC5547389, “Structure-activity relationships and molecular docking studies of chromene and chromene based azo chromophores: A novel series of potent antimicrobial and anticancer agents” (EXCLI Journal, 2017)
